In the NIST ThermoML archive (doi:10.1016/j.tca.2014.10.001):
± gives the expanded uncertainty stated by the source.

Test: mn = molality of the nth substance listed, in mol/kg
Conditions: 100 kPa, Liquid; for electrical conductivity: Alternating current cell with electrodes; for speed of sound: Frequency=3 MHz, Sing-around technique in a fixed-path interferometer; for mass density: Vibrating tube method

CCCCn1cc[n+](C)c1C.F[B-](F)(F)F [1-butyl-2,3-dimethylimidazolium tetrafluoroborate] + O
electrical conductivity (298.15 K, m1 = 0.1072): 0.787 ± 0.063 S/m | electrical conductivity (298.15 K, m1 = 0.1123): 0.816 ± 0.065 S/m | electrical conductivity (298.15 K, m1 = 0.1179): 0.847 ± 0.068 S/m | electrical conductivity (298.15 K, m1 = 0.1242): 0.881 ± 0.07 S/m | electrical conductivity (298.15 K, m1 = 0.1311): 0.92 ± 0.074 S/m | electrical conductivity (298.15 K, m1 = 0.1388): 0.962 ± 0.077 S/m | electrical conductivity (298.15 K, m1 = 0.1474): 1.01 ± 0.081 S/m | electrical conductivity (298.15 K, m1 = 0.1573): 1.06 ± 0.085 S/m | electrical conductivity (298.15 K, m1 = 0.1685): 1.12 ± 0.09 S/m | electrical conductivity (298.15 K, m1 = 0.1815): 1.19 ± 0.095 S/m | electrical conductivity (298.15 K, m1 = 0.1966): 1.27 ± 0.1 S/m | electrical conductivity (298.15 K, m1 = 0.2145): 1.35 ± 0.11 S/m | speed of sound (298.15 K, m1 = 0.0308): 1500.7 ± 1.2 m/s | speed of sound (298.15 K, m1 = 0.04107): 1502.3 ± 1.2 m/s | speed of sound (298.15 K, m1 = 0.05137): 1504 ± 1.2 m/s | speed of sound (298.15 K, m1 = 0.06162): 1505.7 ± 1.2 m/s | speed of sound (298.15 K, m1 = 0.08198): 1509 ± 1.2 m/s | speed of sound (298.15 K, m1 = 0.1024): 1511.6 ± 1.2 m/s | speed of sound (298.15 K, m1 = 0.1231): 1512.3 ± 1.2 m/s | speed of sound (298.15 K, m1 = 0.1436): 1513 ± 1.2 m/s | speed of sound (298.15 K, m1 = 0.164): 1513.5 ± 1.2 m/s | speed of sound (298.15 K, m1 = 0.1846): 1514 ± 1.2 m/s | speed of sound (298.15 K, m1 = 0.205): 1514.6 ± 1.2 m/s | mass density (298.15 K, m1 = 0.0308): 998.165 ± 0.11 kg/m3 | mass density (298.15 K, m1 = 0.04107): 998.537 ± 0.11 kg/m3 | mass density (298.15 K, m1 = 0.05137): 998.909 ± 0.11 kg/m3 | mass density (298.15 K, m1 = 0.06162): 999.277 ± 0.11 kg/m3 | mass density (298.15 K, m1 = 0.08198): 1000 ± 0.11 kg/m3 | mass density (298.15 K, m1 = 0.1024): 1000.72 ± 0.11 kg/m3 | mass density (298.15 K, m1 = 0.1231): 1001.43 ± 0.11 kg/m3 | mass density (298.15 K, m1 = 0.1436): 1002.11 ± 0.11 kg/m3 | mass density (298.15 K, m1 = 0.164): 1002.79 ± 0.11 kg/m3 | mass density (298.15 K, m1 = 0.1846): 1003.47 ± 0.11 kg/m3 | mass density (298.15 K, m1 = 0.205): 1004.13 ± 0.11 kg/m3 | electrical conductivity (308.15 K, m1 = 0.0309): 0.278 ± 0.022 S/m | electrical conductivity (308.15 K, m1 = 0.032): 0.287 ± 0.023 S/m | electrical conductivity (308.15 K, m1 = 0.0333): 0.299 ± 0.024 S/m | electrical conductivity (308.15 K, m1 = 0.0347): 0.305 ± 0.024 S/m | electrical conductivity (308.15 K, m1 = 0.0362): 0.32 ± 0.026 S/m | electrical conductivity (308.15 K, m1 = 0.0379): 0.331 ± 0.026 S/m | electrical conductivity (308.15 K, m1 = 0.0397): 0.344 ± 0.028 S/m | electrical conductivity (308.15 K, m1 = 0.0417): 0.359 ± 0.029 S/m | electrical conductivity (308.15 K, m1 = 0.0439): 0.378 ± 0.03 S/m | electrical conductivity (308.15 K, m1 = 0.0463): 0.396 ± 0.032 S/m | electrical conductivity (308.15 K, m1 = 0.049): 0.415 ± 0.033 S/m | electrical conductivity (308.15 K, m1 = 0.0521): 0.437 ± 0.035 S/m | electrical conductivity (308.15 K, m1 = 0.0556): 0.462 ± 0.037 S/m | electrical conductivity (308.15 K, m1 = 0.0596): 0.493 ± 0.04 S/m | electrical conductivity (308.15 K, m1 = 0.0642): 0.531 ± 0.043 S/m | electrical conductivity (308.15 K, m1 = 0.0695): 0.568 ± 0.045 S/m | electrical conductivity (308.15 K, m1 = 0.0719): 0.585 ± 0.047 S/m | electrical conductivity (308.15 K, m1 = 0.0745): 0.603 ± 0.048 S/m | electrical conductivity (308.15 K, m1 = 0.0772): 0.624 ± 0.05 S/m | electrical conductivity (308.15 K, m1 = 0.0802): 0.649 ± 0.052 S/m | electrical conductivity (308.15 K, m1 = 0.0834): 0.673 ± 0.054 S/m | electrical conductivity (308.15 K, m1 = 0.0869): 0.698 ± 0.056 S/m | electrical conductivity (308.15 K, m1 = 0.0906): 0.727 ± 0.058 S/m | electrical conductivity (308.15 K, m1 = 0.0947): 0.756 ± 0.06 S/m | electrical conductivity (308.15 K, m1 = 0.0992): 0.788 ± 0.063 S/m | electrical conductivity (308.15 K, m1 = 0.1042): 0.819 ± 0.066 S/m | electrical conductivity (308.15 K, m1 = 0.1097): 0.851 ± 0.068 S/m | electrical conductivity (308.15 K, m1 = 0.1158): 0.883 ± 0.071 S/m | electrical conductivity (308.15 K, m1 = 0.1225): 0.919 ± 0.074 S/m | electrical conductivity (308.15 K, m1 = 0.1302): 0.965 ± 0.077 S/m | electrical conductivity (308.15 K, m1 = 0.1388): 1.01 ± 0.081 S/m | electrical conductivity (308.15 K, m1 = 0.1487): 1.07 ± 0.085 S/m | electrical conductivity (308.15 K, m1 = 0.1602): 1.13 ± 0.09 S/m | electrical conductivity (308.15 K, m1 = 0.1735): 1.2 ± 0.096 S/m | electrical conductivity (308.15 K, m1 = 0.1892): 1.29 ± 0.1 S/m | electrical conductivity (308.15 K, m1 = 0.208): 1.4 ± 0.11 S/m | speed of sound (308.15 K, m1 = 0.0308): 1523 ± 1.2 m/s | speed of sound (308.15 K, m1 = 0.04107): 1524.2 ± 1.2 m/s | speed of sound (308.15 K, m1 = 0.05137): 1525.5 ± 1.2 m/s | speed of sound (308.15 K, m1 = 0.06162): 1526.8 ± 1.2 m/s | speed of sound (308.15 K, m1 = 0.08198): 1529 ± 1.2 m/s | speed of sound (308.15 K, m1 = 0.1024): 1531.1 ± 1.2 m/s | speed of sound (308.15 K, m1 = 0.1231): 1531.7 ± 1.2 m/s | speed of sound (308.15 K, m1 = 0.1436): 1532.1 ± 1.2 m/s | speed of sound (308.15 K, m1 = 0.164): 1532.5 ± 1.2 m/s | speed of sound (308.15 K, m1 = 0.1846): 1533 ± 1.2 m/s | speed of sound (308.15 K, m1 = 0.205): 1533.6 ± 1.2 m/s | mass density (308.15 K, m1 = 0.0308): 995.089 ± 0.11 kg/m3 | mass density (308.15 K, m1 = 0.04107): 995.443 ± 0.11 kg/m3 | mass density (308.15 K, m1 = 0.05137): 995.796 ± 0.11 kg/m3 | mass density (308.15 K, m1 = 0.06162): 996.146 ± 0.11 kg/m3 | mass density (308.15 K, m1 = 0.08198): 996.836 ± 0.11 kg/m3 | mass density (308.15 K, m1 = 0.1024): 997.517 ± 0.11 kg/m3 | mass density (308.15 K, m1 = 0.1231): 998.186 ± 0.11 kg/m3 | mass density (308.15 K, m1 = 0.1436): 998.836 ± 0.11 kg/m3 | mass density (308.15 K, m1 = 0.164): 999.479 ± 0.11 kg/m3 | mass density (308.15 K, m1 = 0.1846): 1000.13 ± 0.11 kg/m3 | mass density (308.15 K, m1 = 0.205): 1000.75 ± 0.11 kg/m3
